This passage reports EC50 results from patent US20230391760A1, “HETEROCYCLIC GLP-1 AGONISTS” (Gasherbrum Bio, Inc., priority 2020, published 2023).

As a reminder, the EC50 is the concentration giving half of the maximal effect. A higher EC50 goes with lower potency in that assay.

The structures appear in SMILES notation.

Chain of GLP-1 Receptor (P43220 24-463, species assumed): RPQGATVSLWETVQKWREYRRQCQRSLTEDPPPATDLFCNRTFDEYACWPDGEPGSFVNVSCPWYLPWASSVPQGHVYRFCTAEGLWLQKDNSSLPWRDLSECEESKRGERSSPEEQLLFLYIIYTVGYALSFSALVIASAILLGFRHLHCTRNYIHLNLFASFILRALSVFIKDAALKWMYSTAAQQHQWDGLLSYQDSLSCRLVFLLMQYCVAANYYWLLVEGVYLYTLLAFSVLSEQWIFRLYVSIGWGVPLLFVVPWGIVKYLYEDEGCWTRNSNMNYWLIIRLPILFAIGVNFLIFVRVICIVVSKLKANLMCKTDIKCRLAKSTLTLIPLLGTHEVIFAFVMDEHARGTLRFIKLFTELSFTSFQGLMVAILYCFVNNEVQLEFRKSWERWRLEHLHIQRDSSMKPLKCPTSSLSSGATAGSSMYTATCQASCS

The assay deals with GLP-1 Receptor (Homo sapiens, UniProt P43220). The assay can be described thus: GLP-1R agonist cAMP stimulation assay (HEK293/GLP1R/CRE-LUC cells, cAMP dynamic 2 Kit). Type of assay: cell-based. Particulars: HEK293/CRE-Luc cell line stably expressing the GLP-1 Receptor, 30 min at 37° C. In a few lines:
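cAMP measured by HTRF competition (d2-labelled cAMP with cryptate antibody, 1 h, room temperature, protected from light). Before that, GLP1R/CRE-Luc HEK293 cells (1000/well) were exposed for 30 min at 37 °C to half-log compound dilutions in DPBS containing IBMX 0.5 mM and BSA 0.1%.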
`CC1(c2ccc(Cl)cn2)Oc2cccc(C3CCN(Cc4nc5cc(-c6nnc(C7CC7)[nH]6)ncc5n4C[C@@H]4CCO4)CC3)c2O1` (stereo partly drawn) [Compound 266a, 5-chloro-2-[4-(1-{[6-(5-cyclopropyl-4H-1,2,4-triazol-3-yl)-3-{[(2S)-oxetan-2-yl]methyl}-3H-imidazo[4,5-c]pyridin-2-yl]methyl}piperidin-4-yl)-2-methyl-2H-1,3-benzodioxol-2-yl]pyridine] had a concentration for a half-maximal effect (EC50) of 0.094 nM.
Under `Cc1nnc(-c2cc3nc(CN4CCC(c5cccc6c5OC(C)(c5ccc(Cl)cn5)O6)CC4)n(C[C@@H]4CCO4)c3cn2)[nH]1` (stereo partly drawn) [Compound 267a, 5-chloro-2-[2-methyl-4-(1-{[6-(5-methyl-4H-1,2,4-triazol-3-yl)-3-{[(2S)-oxetan-2-yl]methyl}-3H-imidazo[4,5-c]pyridin-2-yl]methyl}piperidin-4-yl)-2H-1,3-benzodioxol-2-yl]pyridine] stands 0.051 nM.
For the molecule `CC1(c2ccc(Cl)cn2)Oc2cccc(C3CCN(Cc4nc5cc(-c6nnc(C7CC7)[nH]6)cnc5n4C[C@@H]4CCO4)CC3)c2O1` (stereo partly drawn) [Compound 268a, 5-chloro-2-[4-(1-{[6-(5-cyclopropyl-4H-1,2,4-triazol-3-yl)-3-{[(2S)-oxetan-2-yl]methyl}-3H-imidazo[4,5-b]pyridin-2-yl]methyl}piperidin-4-yl)-2-methyl-2H-1,3-benzodioxol-2-yl]pyridine], the EC50 stood at 4.2 nM.
For `Cc1nnc(-c2cnc3c(c2)nc(CN2CCC(c4cccc5c4OC(C)(c4ccc(Cl)cn4)O5)CC2)n3C[C@@H]2CCO2)[nH]1` (stereo partly drawn) [Compound 269a, 5-chloro-2-[2-methyl-4-(1-{[6-(5-methyl-4H-1,2,4-triazol-3-yl)-3-{[(2S)-oxetan-2-yl]methyl}-3H-imidazo[4,5-b]pyridin-2-yl]methyl}piperidin-4-yl)-2H-1,3-benzodioxol-2-yl]pyridine] the value was 2 nM; for `CC1(c2ccc(Cl)cn2)Oc2cccc(C3CCN(Cc4nc5cc(-c6nnc(C7CC7)[nH]6)ccc5n4C[C@@H]4CCO4)CC3)c2O1` (stereo partly drawn) [Compound 270a, 2-({4-[2-(5-chloropyridin-2-yl)-2-methyl-2H-1,3-benzodioxol-4-yl]piperidin-1-yl}methyl)-5-(5-cyclopropyl-4H-1,2,4-triazol-3-yl)-1-{[(2S)-oxetan-2-yl]methyl}-1H-1,3-benzodiazole], 0.86 nM; for `Cc1nnc(-c2ccc3c(c2)nc(CN2CCC(c4cccc5c4OC(C)(c4ccc(Cl)cn4)O5)CC2)n3C[C@@H]2CCO2)[nH]1` (stereo partly drawn) [Compound 271a, 2-({4-[2-(5-chloropyridin-2-yl)-2-methyl-2H-1,3-benzodioxol-4-yl]piperidin-1-yl}methyl)-5-(5-methyl-4H-1,2,4-triazol-3-yl)-1-{[(2S)-oxetan-2-yl]methyl}-1H-1,3-benzodiazole], 0.34 nM.
`CC1(c2ccc(C#N)cc2F)Oc2cccc(C3CCN(Cc4nc5cc(-c6nnc(C(F)(F)F)[nH]6)nnc5n4C[C@@H]4CCO4)CC3)c2O1` (stereo partly drawn) [Compound 273a, 3-fluoro-4-(2-methyl-4-{1-[(7-{[(2S)-oxetan-2-yl]methyl}-3-[5-(trifluoromethyl)-4H-1,2,4-triazol-3-yl]-7H-imidazo[4,5-c]pyridazin-6-yl)methyl]piperidin-4-yl}-2H-1,3-benzodioxol-2-yl)benzonitrile]: the EC50 came to 0.019 nM.
In the case of `CC1(c2ccc(C#N)cc2F)Oc2cccc(C3CCN(Cc4nc5cc(-c6nnc(C7CC7)[nH]6)cnc5n4C[C@@H]4CCO4)CC3)c2O1` (stereo partly drawn) [Compound 276a, 4-[4-(1-{[6-(5-cyclopropyl-4H-1,2,4-triazol-3-yl)-3-{[(2S)-oxetan-2-yl]methyl}-3H-imidazo[4,5-b]pyridin-2-yl]methyl}piperidin-4-yl)-2-methyl-2H-1,3-benzodioxol-2-yl]-3-fluorobenzonitrile], the response was half-maximal at 0.56 nM (EC50). This EC50 lies about 29-fold higher than the previous one.
`CC1(c2ccc(C#N)cc2F)Oc2cccc(C3CCN(Cc4nc5cc(-c6nnc(C7CC7)[nH]6)ccc5n4C[C@@H]4CCO4)CC3)c2O1` (stereo partly drawn) [Compound 277a, 4-[4-(1-{[5-(5-cyclopropyl-4H-1,2,4-triazol-3-yl)-1-{[(2S)-oxetan-2-yl]methyl}-1H-1,3-benzodiazol-2-yl]methyl}piperidin-4-yl)-2-methyl-2H-1,3-benzodioxol-2-yl]-3-fluorobenzonitrile] came in with an EC50 of 0.15 nM. Compared with the last molecule, the EC50 is about 3.7-fold lower.
For `Cc1nnc(-c2cc3nc(CN4CCC(c5cccc6c5O[C@@](C)(c5ccc(Cl)cc5F)O6)CC4)n(C[C@@H]4CCO4)c3nn2)[nH]1` [Compound 280a, 4-[(2S)-2-(4-chloro-2-fluorophenyl)-2-methyl-2H-1,3-benzodioxol-4-yl]-1-{[3-(5-methyl-4H-1,2,4-triazol-3-yl)-7-{[(2S)-oxetan-2-yl]methyl}-7H-imidazo[4,5-c]pyridazin-6-yl]methyl}piperidine] the value was 0.11 nM.
`C[C@]1(c2ccc(Cl)cc2F)Oc2cccc(C3CCN(Cc4nc5cc(-c6nnc(C7CC7)[nH]6)ncc5n4C[C@@H]4CCO4)CC3)c2O1` [Compound 281a, 4-[(2S)-2-(4-chloro-2-fluorophenyl)-2-methyl-2H-1,3-benzodioxol-4-yl]-1-{[6-(5-cyclopropyl-4H-1,2,4-triazol-3-yl)-3-{[(2S)-oxetan-2-yl]methyl}-3H-imidazo[4,5-c]pyridin-2-yl]methyl}piperidine] registered an EC50 of 0.023 nM.
The molecule `C[C@]1(c2ccc(Cl)cc2F)Oc2cccc(C3CCN(Cc4nc5cc(-c6nnc(C7CC7)[nH]6)cnc5n4C[C@@H]4CCO4)CC3)c2O1` [Compound 282a, 4-[(2S)-2-(4-chloro-2-fluorophenyl)-2-methyl-2H-1,3-benzodioxol-4-yl]-1-{[6-(5-cyclopropyl-4H-1,2,4-triazol-3-yl)-3-{[(2S)-oxetan-2-yl]methyl}-3H-imidazo[4,5-b]pyridin-2-yl]methyl}piperidine] displayed an EC50 of 0.45 nM.
As for `C[C@]1(c2ccc(Cl)cc2F)Oc2cccc(C3CCN(Cc4nc5cc(-c6nnc(C7CC7)[nH]6)ccc5n4C[C@@H]4CCO4)CC3)c2O1` [Compound 283a, 2-({4-[(2S)-2-(4-chloro-2-fluorophenyl)-2-methyl-2H-1,3-benzodioxol-4-yl]piperidin-1-yl}methyl)-5-(5-cyclopropyl-4H-1,2,4-triazol-3-yl)-1-{[(2S)-oxetan-2-yl]methyl}-1H-1,3-benzodiazole], a half-maximal effect (EC50) was put at 0.1 nM.
In the case of `Cc1nnc(-c2cc3nc(CN4CCC(c5cccc6c5O[C@@](C)(c5ccc(C#N)cc5F)O6)CC4)n(C[C@@H]4CCO4)c3cn2)[nH]1` [Compound 288a, 3-fluoro-4-[(2S)-2-methyl-4-(1-{[6-(5-methyl-4H-1,2,4-triazol-3-yl)-3-{[(2S)-oxetan-2-yl]methyl}-3H-imidazo[4,5-c]pyridin-2-yl]methyl}piperidin-4-yl)-2H-1,3-benzodioxol-2-yl]benzonitrile], the half-maximal effective concentration (EC50) was found to be 0.0087 nM. Against the preceding molecule, the EC50 is about 11-fold lower.
Turning to `Cc1nnc(-c2cc3nc(CN4CCC(c5cccc6c5O[C@@](C)(c5ccc(Cl)cc5F)O6)CC4)n(C[C@@H]4CCO4)c3cn2)[nH]1` [Compound 289a, 4-[(2S)-2-(4-chloro-2-fluorophenyl)-2-methyl-2H-1,3-benzodioxol-4-yl]-1-{[6-(5-methyl-4H-1,2,4-triazol-3-yl)-3-{[(2S)-oxetan-2-yl]methyl}-3H-imidazo[4,5-c]pyridin-2-yl]methyl}piperidine], the EC50 amounted to 0.0051 nM.
In turn, `Cc1nnc(-c2cnc3c(c2)nc(CN2CCC(c4cccc5c4O[C@@](C)(c4ccc(Cl)cc4F)O5)CC2)n3C[C@@H]2CCO2)[nH]1` [Compound 292a, 4-[(2S)-2-(4-chloro-2-fluorophenyl)-2-methyl-2H-1,3-benzodioxol-4-yl]-1-{[6-(5-methyl-4H-1,2,4-triazol-3-yl)-3-{[(2S)-oxetan-2-yl]methyl}-3H-imidazo[4,5-b]pyridin-2-yl]methyl}piperidine] showed an EC50 of 0.1 nM.
`O=c1[nH]c(-c2cnc3c(c2)nc(CN2CC=C(c4ccc(F)c(OCc5ccc(Cl)cc5F)c4)CC2)n3C[C@@H]2CCO2)no1` [Compound 293a, 3-{2-[(4-{3-[(4-chloro-2-fluorophenyl)methoxy]-4-fluorophenyl}-1,2,3,6-tetrahydropyridin-1-yl)methyl]-3-{[(2S)-oxetan-2-yl]methyl}-3H-imidazo[4,5-b]pyridin-6-yl}-4,5-dihydro-1,2,4-oxadiazol-5-one] yielded an EC50 of 2.8 nM. This EC50 is about 28-fold higher than that of the molecule before.
In turn, `Fc1cc(Cl)ccc1COc1cc(C2=CCN(Cc3nc4cc(-c5nnc(C(F)(F)F)[nH]5)cnc4n3C[C@@H]3CCO3)CC2)ccc1F` [Compound 294a, 4-{3-[(4-chloro-2-fluorophenyl)methoxy]-4-fluorophenyl}-1-[(3-{[(2S)-oxetan-2-yl]methyl}-6-[5-(trifluoromethyl)-4H-1,2,4-triazol-3-yl]-3H-imidazo[4,5-b]pyridin-2-yl)methyl]-1,2,3,6-tetrahydropyridine] registered an EC50 of 0.47 nM. Compared with the last molecule, the EC50 is about 6-fold lower.
`N#Cc1ccc(COc2cc(C3=CCN(Cc4nc5cc(-c6noc(=O)[nH]6)cnc5n4C[C@@H]4CCO4)CC3)ccc2F)c(F)c1` [Compound 295a, 3-fluoro-4-[(2-fluoro-5-{1-[(3-{[(2S)-oxetan-2-yl]methyl}-6-(5-oxo-4,5-dihydro-1,2,4-oxadiazol-3-yl)-3H-imidazo[4,5-b]pyridin-2-yl)methyl]-1,2,3,6-tetrahydropyridin-4-yl}phenoxy)methyl]benzonitrile] registered a half-maximal effective concentration (EC50) of 2.6 nM.
`N#Cc1ccc(COc2cc(C3=CCN(Cc4nc5cc(-c6nnc(C(F)(F)F)[nH]6)cnc5n4C[C@@H]4CCO4)CC3)ccc2F)c(F)c1` [Compound 296a, 3-fluoro-4-[(2-fluoro-5-{1-[(3-{[(2S)-oxetan-2-yl]methyl}-6-[5-(trifluoromethyl)-4H-1,2,4-triazol-3-yl]-3H-imidazo[4,5-b]pyridin-2-yl)methyl]-1,2,3,6-tetrahydropyridin-4-yl}phenoxy)methyl]benzonitrile] yielded an EC50 of 0.48 nM.
